Two compounds from patent US20240228481A1, “NOVEL SULFONAMIDE SERIES OF QR2 INHIBITORS TO TACKLE OXIDATIVE STRESS AND COGNITIVE DECLINE” (CARMEL HAIFA UNIVERSITY ECONOMIC CORPORATION LTD., priority 2021, published 2024) can be followed below.

SMILES strings stand for the structures. Where a name gives a salt, the structure may show the parent alone. A value given as a limit tells only on which side of the number the result lay.

For one data set, the system named is HCT116 QR2Δ cells. Kind of data set: H2DCFDA detection of cellular ROS in HCT116 QR2Δ cells. It counts as cell-based, human. As to conditions: 20 μM, 3 h. The text has this: Additional details of the knockout procedure and corresponding figures have been previously published. Disruption of the NQO2 gene at positions 46 and 108 within exon 4 was done using CRISPR/Cas9 dual nickase (plasmid pSpCas9n(BB)-2A-Puro (PX462), Addgene #48141). The target sequence was selected using a CRISPR design tool (http://crispr.mit.edu/), which identified the guide sequences with the least off-targets. Vectors NQ024_46 and NQ024_108 were produced by cloning oligonucleotides corresponding to guide RNA (sgRNA) into PX462 as previously described. The vectors were then transfected into HCT 116 cells (at 70% confluence) using Lipofectamine 2000 (Life Technologies), and 24 h later 0.7 μg/mL puromycin (Alfa Aesar) was added to the media for 72 h. Cells that survived were then collected and serially diluted into 96 well plates, with puromycin supplemented media, to enable selection and expansion of plasmid containing colonies two weeks later.
The cells were harvested and resuspended in 1% clear medium (DMEM—with no phenol red, supplemented with 1% FBS, 1% L-Glutamine and 1% Penicillin-Streptomycin). […] The plate was then incubated in the dark at 37° C. for 3 h, before reading in a Tecan M200 Pro florescence microplate reader, using wavelengths Ex/Em=485 nm/535 nm.

In data set [1] the test system is 5×FAD mice. As to the kind of experiment: Novel object recognition in 5×FAD mice. As to conditions: 5×FAD males.
Procedure: Following the first exploration of the open field arena (described above), mice were returned to the same arena the next day, while the arena now contained two identical objects. Mice were allowed to explore the objects and the arena 3 times for 10 min, with an inter trial interval of 10 min. The following day one of the objects was replaced with a novel object, and the mice were returned to the arena and allowed to explore for 10 min. Mouse movement, exploration and nuzzling was automatically recorded with an Ikegami ICD-49E camera with EthoVision 14 (Noldus Information Technology). Discrimination of the novel object was assessed by calculating (time exploring novel object−time exploring familiar object)/(time exploring novel object+time exploring familiar object).
Another data set is described as follows: Solubility in water. In kind it is physicochemical. As to conditions: HCl salt. The text has this:
In order to enable water-solubility so that an inhibitor could be easily applied to crystalized QR2, and to enable oral administration of the inhibitor and eliminate undesirable formulations, HCl was conjugated to YB-537 (see step 6 in methods section ‘Synthesis of Novel QR2 Inhibitors’ and Table 3). […] Using the water-soluble YB-537 to determine ligand-target interactions, purified human QR2 was co-crystalized in the presence of the inhibitor (FIG. 3A). […] YB-537 is bound to each of the monomers, and interacts with amino acids from both monomers, as well as with FAD. The plane of YB-537 stacks up parallel to the isoalloxazine ring of the FAD and the average distance between the planes of the two rings is 3.5 Å. Each FAD moiety forms 17 contacts within 3.5 Å to atoms from YB-537 and 48 contacts to 17 amino acids from one monomer, namely—H12, S17, F18, N19, S21, P103, L104, Y105, W106, F107, T148, T149, G150, G151, Y156, E194, and R201. YB-537 binds to the catalytic site through a series of hydrophobic and hydrogen bonds with both FAD and amino acids from both QR2 monomers, in a manner unique to it (FIG. 3B). Specifically, YB-537 forms 6 contacts to G150, G151, M155 and a hydrogen bond with N162 from one monomer (A) and 8 contacts to F127, 1129, F132, and F179 from the other monomer (B).

The next data set in a line: in vitro. The settings on record: human.
In data set [2] the test system is 5×FAD mice. Kind of data set: Open field in 5×FAD mice. In kind it is in vivo, mouse. The method, then:
Mice were individually placed within a cage and taken to a dimly lit room containing an open field arena 50×50 cm in size. They were given 10 min prior to being placed within the arena, where for a period of 5 min they were allowed to explore. Two weeks later, this was repeated. […] The floor was either white or black, depending on mouse coat color, to allow automatic analysis of movement parameters, apart from rearing which was manually counted.

Procedure for in vitro: THLE-2 (CRL-2706™) were grown in the BEGM Bullet Kit (CC-3170) from Lonza. Besides the additives contained in the kit, the medium was further supplemented with 5 ng/mL EGF (Sigma), 70 ng/mL phosphoethanolamine (Sigma) and 10% FBS (Biological Industries). The plates for the THLE-2 needed to be pre-coated with a mixture of 0.01 mg/mL fibronectin, 0.05 mg/mL of PureCol™ EZ Gel Solution (Sigma) and 0.01 mg/mL of BSA dissolved in BEBM medium (Lonza). The coating medium was aspirated before seeding.
THLE-2 cells were exposed to the compounds in a 9-point, 2-fold dilution dose response series with a 100 μM as upper limit, for 72 h. Following the 72 h of exposure to the test compounds, cell viability was determined by measuring the concentration of cellular ATP (CellTiter Glo, Promega). The luminescence signal was measured on a Pherastar FS multi-mode plate reader (BMG Labtech). Each data point was tested in a triplicate.
First, toxicity was assessed in an ATP depletion assay, using THLE-2 cells following a 72 h exposure to a dose response of each of the tested compounds.

Consider `Cc1cccn2cc(-c3cccc(S(=O)(=O)N4CCC(C)CC4)c3)nc12` [YB-800], for which the “baseline ROS levels” value in the data set on HCT116 QR2Δ cells is recorded as −0.009±0.049 AU.
Regarding `Cc1ccc(-c2cn3cccc(C)c3n2)cc1S(=O)(=O)N1CCNCC1` [YB-537, 8-methyl-2-(4-methyl-3-(piperazin-1-ylsulfonyl)phenyl)imidazo[1,2-a]pyridine hydrochloride], the novel object discrimination with 5×FAD mice [1] amounted to 0.06432±0.1285. The solubility in water entry in “Solubility in water” is listed as “complete solution”. For the same compound, the IC50 at 72 h in “in vitro” was > 99 µM. Also, in the data set with 5×FAD mice [2] (5×FAD both sexes), the average velocity was 10.9 ± 0.800 cm/s, the hind-limb rearing frequency is given as 35.72±3.292, the “maximum movement bout duration” value was determined as 8.061 ± 1.322 s and the meandering stood at 733.4±42.8 deg/cm. Besides, in the data set on 5×FAD mice [2] (5×FAD both sexes), the “proportion of time moving” value came out at 81.44±1.134%, the total distance traveled stood at 3244±237.9 cm and the total movement duration amounted to 244.3 ± 3.402 s. Further, in the data set with 5×FAD mice [2] (5×FAD females), the average velocity amounted to 12.03 ± 1.625 cm/s, the hind-limb rearing frequency was 35.29±4.894, the “maximum movement bout duration” value came to 9.677 ± 3.012 s and the meandering is listed as 696.3±65.26 deg/cm. Also, in the data set with 5×FAD mice [2] (5×FAD females), the “proportion of time moving” value was 81.84±1.856%, the total distance traveled stood at 3581±484.5 cm and the total movement duration turned out to be 245.5 ± 5.568 s. In addition, in the data set with 5×FAD mice [2] (5×FAD males), the average velocity came to 10.01 ± 0.611 cm/s, the hind-limb rearing frequency stood at 36.06±4.703, the “maximum movement bout duration” value is recorded as 6.804 s and the meandering stood at 762.2±58.17 deg/cm. In the data set with 5×FAD mice [2] (5×FAD males), the “proportion of time moving” value came out at 81.13±1.5%, the total distance traveled is on record as 2983±179.3 cm and the total movement duration stood at 243.4 ± 4.5 s.

A word on the IC50: it is the midpoint of a concentration-inhibition curve. A lower IC50 goes with higher potency.
